From PubChem BioAssay (NCI)
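Growth conditions: 96-well plates. Treatment: test compound, 48 hours, 5 concentrations. Analysis: linear interpolation between bracketing concentrations; unreached endpoints set to highest concentration. TGI: concentration producing complete growth inhibition.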

Key:
Test in all cases: NCI tumour cell line growth inhibition, 48 h
786-0 renal = tested on: 786-0 renal
A498 renal = tested on: A498 renal
A549 NSCLC = tested on: A549 NSCLC
ACHN renal = tested on: ACHN renal
BT-549 breast = tested on: BT-549 breast
CAKI-1 renal = tested on: CAKI-1 renal
CCRF-CEM leukemia = tested on: CCRF-CEM leukemia
COLO 205 colon = tested on: COLO 205 colon
DU-145 prostate = tested on: DU-145 prostate
EKVX NSCLC = tested on: EKVX NSCLC
HCC-2998 colon = tested on: HCC-2998 colon
HCT-116 colon = tested on: HCT-116 colon
HCT-15 colon = tested on: HCT-15 colon
HL-60(TB) leukemia = tested on: HL-60(TB) leukemia
HOP-62 NSCLC = tested on: HOP-62 NSCLC
HOP-92 NSCLC = tested on: HOP-92 NSCLC
HS 578T breast = tested on: HS 578T breast
HT29 colon = tested on: HT29 colon
IGROV1 ovarian = tested on: IGROV1 ovarian
K-562 leukemia = tested on: K-562 leukemia
KM12 colon = tested on: KM12 colon
LOX IMVI melanoma = tested on: LOX IMVI melanoma
M14 melanoma = tested on: M14 melanoma
MALME-3M melanoma = tested on: MALME-3M melanoma
MCF7 breast = tested on: MCF7 breast
MDA-MB-231 breast = tested on: MDA-MB-231 breast
MDA-MB-435 = tested on: MDA-MB-435
MDA-N = tested on: MDA-N
MOLT-4 leukemia = tested on: MOLT-4 leukemia
NCI-H226 lung = tested on: NCI-H226 lung
NCI-H23 lung = tested on: NCI-H23 lung
NCI-H460 lung = tested on: NCI-H460 lung
NCI-H522 lung = tested on: NCI-H522 lung
NCI/ADR-RES ovarian = tested on: NCI/ADR-RES ovarian
OVCAR-3 ovarian = tested on: OVCAR-3 ovarian
OVCAR-4 ovarian = tested on: OVCAR-4 ovarian
OVCAR-5 ovarian = tested on: OVCAR-5 ovarian
OVCAR-8 ovarian = tested on: OVCAR-8 ovarian
PC-3 prostate = tested on: PC-3 prostate
RPMI-8226 leukemia = tested on: RPMI-8226 leukemia
RXF 393 renal = tested on: RXF 393 renal
SF-268 CNS = tested on: SF-268 CNS
SF-295 CNS = tested on: SF-295 CNS
SF-539 CNS = tested on: SF-539 CNS
SK-MEL-2 melanoma = tested on: SK-MEL-2 melanoma
SK-MEL-28 melanoma = tested on: SK-MEL-28 melanoma
SK-MEL-5 melanoma = tested on: SK-MEL-5 melanoma
SK-OV-3 ovarian = tested on: SK-OV-3 ovarian
SN12C renal = tested on: SN12C renal
SNB-19 CNS = tested on: SNB-19 CNS
SNB-75 CNS = tested on: SNB-75 CNS
SR leukemia = tested on: SR leukemia
SW-620 colon = tested on: SW-620 colon
T-47D breast = tested on: T-47D breast
TK-10 renal = tested on: TK-10 renal
U251 CNS = tested on: U251 CNS
UACC-257 melanoma = tested on: UACC-257 melanoma
UACC-62 melanoma = tested on: UACC-62 melanoma
UO-31 renal = tested on: UO-31 renal

C=C(Cl)C(Cl)(CBr)CCCC(C)(C)Cl (centres undefined)
TGI (786-0 renal): 18 µM | TGI (A498 renal): 33.9 µM | TGI (A549 NSCLC): 32.1 µM | TGI (ACHN renal): 19.6 µM | TGI (BT-549 breast): > 100 µM | TGI (CAKI-1 renal): 3.8 µM | TGI (CCRF-CEM leukemia): > 62.3 µM | TGI (COLO 205 colon): 20.8 µM | TGI (DU-145 prostate): 23.5 µM | TGI (EKVX NSCLC): 32.6 µM | TGI (HCC-2998 colon): 29.5 µM | TGI (HCT-116 colon): 30.8 µM | TGI (HCT-15 colon): 70.8 µM | TGI (HL-60(TB) leukemia): 3.22 µM | TGI (HOP-62 NSCLC): 9.16 µM | TGI (HOP-92 NSCLC): 6.33 µM | TGI (HS 578T breast): 12.7 µM | TGI (HT29 colon): 4.28 µM | TGI (IGROV1 ovarian): > 75.3 µM | TGI (K-562 leukemia): > 66.8 µM | TGI (KM12 colon): 3.6 µM | TGI (LOX IMVI melanoma): 40.9 µM | TGI (M14 melanoma): > 100 µM | TGI (MALME-3M melanoma): > 55.1 µM | TGI (MCF7 breast): 20.2 µM | TGI (MDA-MB-231 breast): > 59 µM | TGI (MDA-MB-435): > 73.3 µM | TGI (MDA-N): > 79.5 µM | TGI (MOLT-4 leukemia): > 100 µM | TGI (NCI-H226 lung): > 100 µM | TGI (NCI-H23 lung): > 100 µM | TGI (NCI-H460 lung): 17.7 µM | TGI (NCI-H522 lung): 28.1 µM | TGI (NCI/ADR-RES ovarian): > 74.1 µM | TGI (OVCAR-3 ovarian): 6.51 µM | TGI (OVCAR-4 ovarian): 17 µM | TGI (OVCAR-5 ovarian): 33 µM | TGI (OVCAR-8 ovarian): 52.6 µM | TGI (PC-3 prostate): 9.36 µM | TGI (RPMI-8226 leukemia): 4.03 µM | TGI (RXF 393 renal): > 100 µM | TGI (SF-268 CNS): 38.3 µM | TGI (SF-295 CNS): 19.8 µM | TGI (SF-539 CNS): 4.93 µM | TGI (SK-MEL-2 melanoma): 32.3 µM | TGI (SK-MEL-28 melanoma): 25.4 µM | TGI (SK-MEL-5 melanoma): > 90.8 µM | TGI (SK-OV-3 ovarian): > 100 µM | TGI (SN12C renal): > 100 µM | TGI (SNB-19 CNS): 30.1 µM | TGI (SNB-75 CNS): 37.6 µM | TGI (SR leukemia): > 100 µM | TGI (SW-620 colon): 41.4 µM | TGI (T-47D breast): 4.15 µM | TGI (TK-10 renal): 4.54 µM | TGI (U251 CNS): 4.16 µM | TGI (UACC-257 melanoma): 13.8 µM | TGI (UACC-62 melanoma): 42.3 µM | TGI (UO-31 renal): 29.3 µM
